This passage reports IC50 results from publication PMC4357015, “Structure, Function and Inhibition of the Phosphoethanolamine Methyltransferases of the Human Malaria Parasites Plasmodium vivax and Plasmodium knowlesi” (Scientific Reports, 2015).

This assay deals with T1, PkPMT (Plasmodium knowlesi, UniProt A0A384KJX3).
T1 sequence (A0A384KJX3 1-264): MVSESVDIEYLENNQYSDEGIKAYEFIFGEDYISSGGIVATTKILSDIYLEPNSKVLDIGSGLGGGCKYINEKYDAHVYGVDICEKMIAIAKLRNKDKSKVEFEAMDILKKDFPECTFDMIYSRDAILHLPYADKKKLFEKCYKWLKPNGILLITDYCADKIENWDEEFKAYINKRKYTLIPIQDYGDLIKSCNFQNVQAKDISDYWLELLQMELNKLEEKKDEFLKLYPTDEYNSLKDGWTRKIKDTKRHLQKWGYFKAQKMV
Briefly: radiometric PMT transmethylation assay, inhibition of PkPMT. The format is biochemical. The note with it: P-Etn 2 mM, SAM 1.5 mM; inhibitor 0, 100, 500, 1000 μM; read-out: IC50, inhibition of PkPMT activity. As to the method: Figure 3 Amodiaquine (AQ) and NSC158011 inhibit the activity of PvPMT and PkPMT. Enzyme inhibition assays with different concentrations of Amodiaquine (AQ), NSC158011 and Chloroquine (CQ) were carried out at constant P-Etn (2 mM) and SAM (1.5 mM) concentrations. The activity in the absence of any drug was taken as 100% and % enzyme activity was calculated in the presence of different drug concentrations (100, 500, 1000 μM). To determine the concentration that results in 50% inhibition of enzyme activity (IC50), the data were fitted to a non-linear regression analysis in the following equation Y = 100/(1 + ([X]/IC50)), where Y is % enzyme activity and X is drug concentration using Graph pad software.
For enzyme kinetics studies recombinant histidine-tagged proteins were expressed using 1 mM IPTG for 4 h, purified using Ni-affinity purification and dialyzed. As expected, purified proteins migrated in SDS-PAGE gels at approximately 31 kDa. The purified proteins were stored in HEPES-KOH buffer (pH 7.4) at 4°C and were assayed within a month of purification. During this time, the integrity of the protein was assessed by SDS-PAGE. The kinetic properties of enzymes were assessed using radiometric assay wherein incorporation of radioactive labeled methyl donor (100nCi [methyl-^14C] SAM, Perkin elmer NEC363010UC) or (200nCi [methyl-^3H] SAM, Perkin Elmer NET155H250UC) was measured. […]

For `CCN(CC)Cc1cc(Nc2ccnc3cc(Cl)ccc23)ccc1O` [AQ, amodiaquine], the half-inhibitory concentration (IC50) (as a rule, the point on the concentration scale where inhibition reaches its midpoint) amounted to 398 µM.
